The source of these data is patent publication US20210379062A1, “The use of a H3R inverse agonist for the treatment of excessive daytime sleepiness associated with parkinson's disease (PD)” (Novartis AG, priority 2018, published 2021).

The conditions of data set [1]: cited from earlier work.
A short description of another data set: Rat brain and plasma PK. It is filed as in vivo. Particulars: 10 mg/kg oral, rats.
Another data set concerns H3 receptor. Briefly: Ex vivo receptor occupancy assay in rat frontal cortex. Particulars: rats; for dose that resulted in H3 receptor occupancy of 80-90%: oral dosing, 1 h after compound administration. The protocol: Male Sprague-Dawley rats (from Shanghai SLAC Laboratory Animal CO. LTD) at the age of 5-6 weeks were used. The animals were housed in a temperature and humidity-controlled environment on a 12 h light/dark cycle with food and water available ad libitum. All the procedures were approved by Institutional Animal Care and Use Committee of Chempartner Co., LTD (IACUC Protocol NO: A998HL0076).
Compounds were dissolved in 50 mM citrate buffer (pH 3.5), or saline. The compound was then diluted stepwise to the final concentration with vehicle. Animals were dosed by p.o. or i.v. in 1 ml/kg bodyweight.
At each time point, rats were decapitated immediately. Intact brain was removed, immersed and washed in pre-cooled saline. After drying with filter paper, frontal cortex was dissected with a double-blade with an about 30° angle starting at ⅓ of anterior rat brain (weight of most brain tissues around 70±10 mg). Brain tissue was transferred into a pre-weighed tube with homogenizer beads. The tubes were weighed again and the tissue net weight was recorded. Tissue sampling was done on ice with intervals of 1 min. Then, 50 mM HEPES (Gibco® by Life Technologies) buffer were added (equivalent to 3.75 μl/mg tissue weight) followed by homogenization (frequency 30/sec for 20 sec, TissueLyser, Quiagen).
The crude homogenate samples of rat frontal cortex were used to measure H3 receptor binding as described above with [^3H]—N-α-methylhistamine as radioligand. The protein concentration of each sample was determined by Pierce BCA Protein Assay Kit (Thermo).
The cortical homogenate was added to a 96-well plate containing [^3H]—N-α-methylhistamine (0.1 nM), in a volume of 0.2 ml (final protein concentration 4 μg/μl), incubated at 28° C. for 15 min and the reaction was stopped by rapid filtration using a filtration plate (Millipore multiscreen GF/B plate). The filters were washed three times with ice-cold wash buffer (50 mM Tris, pH 7.5) and 250 μl of Microscint-40 were added followed by determination of the bound radiolabel with a Wallac Microbeta Trilux 2450 (Perkin Elmer). Nonspecific binding was determined in the presence of 10 μM thioperamide. Each data point was obtained from a total of at least four animals. The inhibition of specific [^3H]NAMH binding, calculated as relative to vehicle-treated samples, was determined to provide an indication of receptor occupancy by the compound. The dose-dependent % RO and time course were analyzed using GraphPad Prism. The dose response was fit using GraphPad Prism: log(inhibitor) vs. response with variable slope.

Data set [2] concerns tele-methylhistamine (tMeHA). The data set is described as follows: Ex vivo PD determination: brain tele-methylhistamine time course in rats. Set-up: species or system rat. Particulars: 10 mg/kg oral; for effect on tMeHA levels: brain. The procedure: Male Sprague-Dawley rats (Shanghai SLAC Laboratory Animal Co. LTD) of 6-7 weeks age were used. Animals were housed in a temperature and humidity-controlled environment on a 12 h light/dark. All animals had free access to food and water. All procedures were approved by Institutional Animal Care and Use Committee of ChemPartner Co., LTD (IACUC Protocol NO: A998HL0002).
For bioanalysis of brain tissue tele-methylhistamine samples were further processed.
One aliquot of the stock solution was diluted using ethanol/phosphate buffer pH 7.4 (85:15, v/v) to achieve a series working solutions. The brain homogenate was centrifuged at 12000 rpm for 5 min at 4° C. Then 10 μL supernatant of the brain homogenate sample was added to 60 μL internal standard (d3-1-methyl-histamine, 20 ng/mL). The mixture was vortexed for 2 min and centrifuged at 12000 rpm for 5 min at 4° C. Finally, 60 μL supernatant was added and 3 μL supernatant was injected into LC-MS/MS for analysis (Agilent 6410, triple quadrupole mass spectrometer, Mobile phase A: H2O— 0.1% NH3, Mobile phase B: methanol— 0.1% NH3, Column: Ultimate XB-C18 (2.1×50 mm, 5 μm, Flow rate: 0.45 mL/min, temperature: 40° C.).

In data set [3] the target is T1, Human histamine H3 receptor (Homo sapiens, UniProt Q9Y5N1).
T1 construct: purchased PerkinElmer
Briefly: Radioligand binding assay with [3H]-N-α-methylhistamine. Particulars: human recombinant H3R, 1.0 nM [3H]-N-α-methylhistamine, Cheng-Prusoff. The procedure: Human histamine H3 receptor membrane (PerkinElmer) were incubated with 1.0 nM [^3H]—N-α-methylhistamine (PerkinElmer) in the presence or absence of increasing concentrations of ligands for H3 receptor competition binding. The binding incubations were in a final volume of 0.1 ml buffer (50 mMTris pH 7.5, 5 mM MgCl2) at 28° C. for 120 minutes. Thioperamide (10 μM) was used to define non-specific binding.
All binding reactions were terminated by transferring 70 μl binding reaction from the reaction plate into filtration plates (Zeba 96-well Spin Desalting Plates, Thermo Scientific), followed by centrifugation at 1000 g for 2 min to collect the protein with bound radioligand. 200 μl of microscint-40 were added to determine the bound radiolabel by a Wallac Microbeta Trilux 2450 (Perkin Elmer). For all radioligand competition binding assays, IC50 values and Hill slopes were determined by GraphPad Prism: log(inhibitor) vs. response with variable slope. Ki was calculated using the equation in Biochem. Pharmacol. 1973. 22 (23), 3099-3108, from Cheng and Prusoff: Ki=IC50/{1+([radioligand]/Kd)}.

The mark [4] stands for this setting: 100-200 mg/day, two weeks treatment, excessive sleepiness associated with PD.

Read-outs that look alike come from different tables or passages of the source.

T1 sequence (Q9Y5N1 whole entry): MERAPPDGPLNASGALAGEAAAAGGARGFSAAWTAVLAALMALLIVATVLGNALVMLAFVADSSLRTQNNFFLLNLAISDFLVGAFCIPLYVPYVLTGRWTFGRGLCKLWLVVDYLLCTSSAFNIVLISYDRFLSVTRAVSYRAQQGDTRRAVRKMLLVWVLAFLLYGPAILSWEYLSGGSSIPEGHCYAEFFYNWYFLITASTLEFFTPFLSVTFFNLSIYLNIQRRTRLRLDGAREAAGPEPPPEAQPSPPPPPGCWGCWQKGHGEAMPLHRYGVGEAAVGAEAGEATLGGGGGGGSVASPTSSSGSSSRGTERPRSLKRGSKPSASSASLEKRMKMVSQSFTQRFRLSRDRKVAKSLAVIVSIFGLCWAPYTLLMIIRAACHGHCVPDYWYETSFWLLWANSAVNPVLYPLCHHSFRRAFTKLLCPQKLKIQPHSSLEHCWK

As to `NC(=O)C[S+]([O-])C(c1ccccc1)c1ccccc1` (stereo not drawn) [modafinil, 2-(benzhydrylsulfinyl)acetamide], in data set [1] (setting [4]), the “Epworth Sleeping Scale scores” value was “improved” and the “sleep latency in the Maintenance of Wakefulness Test” value is listed as “but not sleep latency”. In addition, in data set [1] (200-400 mg/day for four weeks), the “Epworth Sleeping Scale scores” value is recorded as “no improvement”.
In the case of `Clc1ccc(CCCOCCCN2CCCCC2)cc1` [pitolisant, reference compound], the total brain exposure entry in the data set “Rat brain and plasma PK” is reported as “very low”. Moreover, in the data set with H3 receptor (300 mg/kg oral, 0.5 h), the “initial RO” value is around 90%. For the same molecule, the RO in the data set with H3 receptor (300 mg/kg oral, 8 h after compound administration) was found to be 40%. Besides, the “dose that resulted in H3 receptor occupancy of 80-90%” value in the data set on H3 receptor is 300 mg/kg. For the same molecule, in data set [2], the “effect on tMeHA levels” value is on record as “no increase”.
On to `O=C(c1ccc(CN2CCOCC2)cc1)N1CCN(C2CC2)CC1` [bavisant, reference compound], for which, in data set [3], the Ki is 102 nM. In the data set “Rat brain and plasma PK”, the “rate of exposure-decline in brain, relative to Compound (I)” value is listed as “much slower” and the total brain exposure result is “very high”. The brain exposure result in “Rat brain and plasma PK” (8 h time point) is “high”. The same molecule yielded an RO with H3 receptor (10 mg/kg oral, 7 h) of 37%. The “initial RO” value with H3 receptor (10 mg/kg oral, time not given) turned out to be 90%. Further, the “dose that resulted in H3 receptor occupancy of 80-90%” value in the data set with H3 receptor was determined as 10 mg/kg. For the same molecule, in data set [2], the “time at which tMeHA increase is first observed” value came to 1 h and the “effect on tMeHA levels” value was “delayed increase”. Further, the “tMeHA level at 8 h” value in data set [2] (8 h) is reported as “stayed elevated”.
